Test results taken from patent US11780839B2, “Compounds for treating Huntington's disease” (PTC THERAPEUTICS, INC., priority 2018, dated 2023).

Tested on: Endogenous Huntingtin Protein
Assay: Endogenous Huntingtin Protein Assay (ELISA-based Meso Scale Discovery electrochemiluminescence)
Assay type: cell-based
Details: MSD electrochemiluminescence, Table 1
Summary of the method: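 Sandwich MSD electrochemiluminescence immunoassay. Capture used MW1 (expanded polyglutamine) or MAB2166 antibody coated at 1 μg/mL overnight at 4 °C. Samples were bound overnight at 4 °C, then a rabbit monoclonal detection antibody and SULFO-TAG anti-rabbit, each at 0.25 μg/mL, were applied for 1 h at room temperature.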

IC50	Structure (SMILES)
≤ 100 nM	Oc1cc(-c2cn[nH]c2)ccc1-c1cnc(N2CC3CNCC3C2)nn1 (centres unmarked) [Cpd 337, 2-[3-(hexahydropyrrolo[3,4-c]pyrrol-2(1H)-yl)-1,2,4-triazin-6-yl]-5-(1H-pyrazol-4-yl)phenol]
100 to 500 nM	CC(C)NC1CCN(c2ncc(-c3ccc(-n4cc(F)cn4)cc3O)nn2)C1 (centres unmarked) [Cpd 338, 5-(4-fluoro-1H-pyrazol-1-yl)-2-(3-{3-[(propan-2-yl)amino]pyrrolidin-1-yl}-1,2,4-triazin-6-yl)phenol]
≤ 100 nM	Oc1cc(-c2cn[nH]c2)ccc1-c1cnc(N2CCC3(CCCN3)C2)nn1 (centres unmarked) [Cpd 339, 2-[3-(1,7-diazaspiro[4.4]nonan-7-yl)-1,2,4-triazin-6-yl]-5-(1H-pyrazol-4-yl)phenol]
≤ 100 nM	CC1(NC2CCN(c3ncc(-c4ccc(-c5cn[nH]c5)cc4O)nn3)C2)CC1 (centres unmarked) [Cpd 340, 2-(3-{3-[(1-methylcyclopropyl)amino]pyrrolidin-1-yl}-1,2,4-triazin-6-yl)-5-(1H-pyrazol-4-yl)phenol]
≤ 100 nM	COCC(C)(C)NC1CCN(c2ncc(-c3ccc(-c4cn[nH]c4)cc3O)nn2)C1 (centres unmarked) [Cpd 341, 2-(3-{3-[(1-methoxy-2-methylpropan-2-yl)amino]pyrrolidin-1-yl}-1,2,4-triazin-6-yl)-5-(1H-pyrazol-4-yl)phenol]
100 to 500 nM	Oc1cc(-c2cn[nH]c2)ccc1-c1cnc(N[C@H]2CCNC[C@H]2F)nn1 [Cpd 345, 2-(3-{[(3R,4S)-3-fluoropiperidin-4-yl]amino}-1,2,4-triazin-6-yl)-5-(1H-pyrazol-4-yl)phenol]
> 500 nM	CN[C@@H]1CN(c2ncc(-c3ccc(-c4cn[nH]c4)cc3O)nn2)C[C@H]1OC [Cpd 346, 2-{3-[(3R,4R)-3-methoxy-4-(methylamino)pyrrolidin-1-yl]-1,2,4-triazin-6-yl}-5-(1H-pyrazol-4-yl)phenol]
≤ 100 nM	CC(C)N[C@H]1CCN(c2ncc(-c3ccc(-c4cn[nH]c4)cc3O)nn2)C1 [Cpd 347, 2-(3-{(3S)-3-[(propan-2-yl)amino]pyrrolidin-1-yl}-1,2,4-triazin-6-yl)-5-(1H-pyrazol-4-yl)phenol]
100 to 500 nM	Oc1cc(-c2cn[nH]c2)ccc1-c1cnc(N2CCC(NC34CC(C3)C4)C2)nn1 (stereo not drawn) [Cpd 349, 2-(3-{3-[(bicyclo[1.1.1]pentan-1-yl)amino]pyrrolidin-l-yl}-1,2,4-triazin-6-yl)-5-(1H-pyrazol-4-yl)phenol]
≤ 100 nM	CNC1CCN(c2ncc(-c3ccc(-c4cnc(C)o4)cc3O)nn2)C1 (stereo not drawn) [Cpd 350, 2-{3-[3-(methylamino)pyrrolidin-l-yl]-1,2,4-triazin-6-yl}-5-(2-methyl-1,3-oxazol-5-yl)phenol]
≤ 100 nM	CC1(C)CC(Nc2ncc(-c3ccc(-c4ncco4)cc3O)nn2)CC(C)(C)N1 [Cpd 352, 5-(1,3-oxazol-2-yl)-2-{3-[(2,2,6,6-tetramethylpiperidin-4-yl)amino]-1,2,4-triazin-6-yl}phenol]
1000 to 3000 nM	Oc1cc(-c2cn[nH]c2)ccc1-c1cnc(N2CCC3(CNCCO3)C2)nn1 (centres unmarked) [Cpd 353, 2-[3-(6-oxa-2,9-diazaspiro[4.5]decan-2-yl)-1,2,4-triazin-6-yl]-5-(1H-pyrazol-4-yl)phenol]
≤ 100 nM	Oc1cc(-c2cn[nH]c2)ccc1-c1cnc(N2CCC3(CCNC3)C2)nn1 (centres unmarked) [Cpd 354, 2-[3-(2,7-diazaspirol{4.4}nonan-2-yl)-1,2,4-triazin-6-yl]-5-(1H-pyrazol-4-yl)phenol]
≤ 100 nM	CC(C)(C)N[C@H]1CCN(c2ncc(-c3ccc(-c4cn[nH]c4)cc3O)nn2)C1 [Cpd 355, 2-{3-[(3S)-3-(tert-butylamino)pyrrolidin-l-yl]-1,2,4-triazin-6-yl}-5-(1H-pyrazol-4-yl)phenol]

Continued, compound first:

Structure (SMILES)	IC50
CN(C)C1CCN(c2ncc(-c3ccc(-c4cn[nH]c4)cc3O)nn2)C1 (centres unmarked) [Cpd 318, 2-{3-[3-(dimethylamino)pyrrolidin-1-yl]-1,2,4-triazin-6-yl}-5-(1H-pyrazol-4-yl)phenol]	100 to 500 nM
Cn1ncc2cc(-c3ccc(-c4cnc(NC5CC(C)(C)NC(C)(C)C5)nn4)c(O)c3)ccc21 [Cpd 319, 5-(1-methyl-1H-indazol-5-yl)-2-{3-[(2,2,6,6-tetramethylpiperidin-4-yl)amino]-1,2,4-triazin-6-yl}phenol]	≤ 100 nM
CNC1CCN(c2ncc(-c3ccc(-c4nnn(C)n4)cc3O)nn2)C1 (centres unmarked) [Cpd 320, 2-{3-[3-(methylamino)pyrrolidin-1-yl]-1,2,4-triazin-6-yl}-5-(2-methyl-2H-tetrazol-5-yl)phenol]	100 to 500 nM
Cn1ncc2cc(-c3ccc(-c4cnc(NC5CC(C)(C)NC(C)(C)C5)nn4)c(O)c3)cnc21 [Cpd 321, 5-(1-methyl-1H-pyrazolo[3,4-b]pyridin-5-yl)-2-{3-[(2,2,6,6-tetramethylpiperidin-4-yl)amino]-1,2,4-triazin-6-yl}phenol]	≤ 100 nM
CC1(C)C[C@H](Nc2ncc(-c3ccc(-c4cn[nH]c4)cc3O)nn2)[C@H](F)C(C)(C)N1 [Cpd 322, 2-(3-{[(3S,4S)-3-fluoro-2,2,6,6-tetramethylpiperidin-4-yl]amino}-1,2,4-triazin-6-yl)-5-(1H-pyrazol-4-yl)phenol]	≤ 100 nM
CC1(C)C[C@@H](Nc2ncc(-c3ccc(-c4cn[nH]c4)cc3O)nn2)[C@@H](F)C(C)(C)N1 [Cpd 323, 2-(3-{[(3R,4R)-3-fluoro-2,2,6,6-tetramethylpiperidin-4-yl]amino}-1,2,4-triazin-6-yl)-5-(1H-pyrazol-4-yl)phenol]	≤ 100 nM
CC1(C)CC(Nc2ncc(-c3ccc(-n4nccn4)cc3O)nn2)C(F)C(C)(C)N1 (centres unmarked) [Cpd 324, 2-{3-[(3-fluoro-2,2,6,6-tetramethylpiperidin-4-yl)amino]-1,2,4-triazin-6-yl}-5-(2H-1,2,3-triazol-2-yl)phenol]	≤ 100 nM
CC1(NC2CCN(c3ncc(-c4ccc(-c5cn[nH]c5)cc4O)nn3)C2)COC1 (centres unmarked) [Cpd 325]	100 to 500 nM
Cc1cn(-c2ccc(-c3cnc(N4CCC(NC(C)C)C4)nn3)c(O)c2)cn1 (centres unmarked) [Cpd 326, 5-(4-methyl-1H-imidazol-1-yl)-2-(3-{3-[(propan-2-yl)amino]pyrrolidin-1-yl}-1,2,4-triazin-6-yl)phenol]	≤ 100 nM
Oc1cc(-c2cn[nH]c2)ccc1-c1cnc(N2C[C@H]3CNCC[C@H]3C2)nn1 [Cpd 327, 2-{3-[(3aR,7aR)-octahydro-2H-pyrrolo[3,4-c]pyridin-2-yl]-1,2,4-triazin-6-yl}-5-(1H-pyrazol-4-yl)phenol]	≤ 100 nM
Oc1cc(-c2cn[nH]c2)ccc1-c1cnc(N2CCNCC2)nn1 [Cpd 328, 2-[3-(piperazin-1-yl)-1,2,4-triazin-6-yl]-5-(1H-pyrazol-4-yl)phenol]	100 to 500 nM
C[C@H](CF)N[C@H]1CCN(c2ncc(-c3ccc(-c4cn[nH]c4)cc3O)nn2)C1 [Cpd 329, 2-{3-[(3S)-3-{[(2R)-1-fluoropropan-2-yl]amino}pyrrolidin-l-yl]-1,2,4-triazin-6-yl}-5-(1H-pyrazol-4-yl)phenol]	100 to 500 nM
CC(C)NC1CCN(c2ncc(-c3ccc(-c4ccc5c(cnn5C)c4)cc3O)nn2)C1 (centres unmarked) [Cpd 330, 5-(1-methyl-1H-indazol-5-yl)-2-(3-{3-[(propan-2-yl)amino]pyrrolidin-1-yl}-1,2,4-triazin-6-yl)phenol]	1000 to 3000 nM
CC(C)NC1CCN(c2ncc(-c3ccc(-n4ccnc4)cc3O)nn2)C1 (centres unmarked) [Cpd 331]	100 to 500 nM
Oc1cc(-c2cn[nH]c2)ccc1-c1cnc(N2CC[C@H]3NCC[C@@H]32)nn1 [Cpd 332, 2-{3-[(3aR,6aS)-hexahydropyrrolo[3,2-b]pyrrol-1(2H)-yl]-1,2,4-triazin-6-yl}-5-(1H-pyrazol-4-yl)phenol]	≤ 100 nM
OCCNC1CCN(c2ncc(-c3ccc(-c4cn[nH]c4)cc3O)nn2)C1 (centres unmarked) [Cpd 333, 2-(3-{3-[(2-hydroxyethyl)amino]pyrrolidin-1-yl}-1,2,4-triazin-6-yl)-5-(1H-pyrazol-4-yl)phenol]	≤ 100 nM
NC1CN(c2ncc(-c3ccc(-c4cn[nH]c4)cc3O)nn2)CC12COC2 (centres unmarked) [Cpd 334, 2-[3-(8-amino-2-oxa-6-azaspiro[3.4]octan-6-yl)-1,2,4-triazin-6-yl]-5-(1H-pyrazol-4-yl)phenol]	1000 to 3000 nM
Oc1cc(-c2cn[nH]c2)ccc1-c1cnc(N2CCC(NC3CCOCC3)C2)nn1 (centres unmarked) [Cpd 335, 2-(3-{3-[(oxan-4-yl)amino]pyrrolidin-1-yl}-1,2,4-triazin-6-yl)-5-(1H-pyrazol-4-yl)phenol]	≤ 100 nM
COCC(C)NC1CCN(c2ncc(-c3ccc(-c4cn[nH]c4)cc3O)nn2)C1 (centres unmarked) [Cpd 336, 2-(3-{3-[(1-methoxypropan-2-yl)amino]pyrrolidin-1-yl}-1,2,4-triazin-6-yl)-5-(1H-pyrazol-4-yl)phenol]	≤ 100 nM
CN(c1cnc(-c2ccc(-c3ccc4c(cnn4C)c3)cc2O)nn1)C1CC(C)(C)NC(C)(C)C1 [Cpd 342, 5-(1-methyl-1H-indazol-5-yl)-2-{6-[methyl(2,2,6,6-tetramethylpiperidin-4-yl)amino]-1,2,4-triazin-3-yl}phenol]	100 to 500 nM
CN(c1cnc(-c2ccc(-c3ccn(C)n3)cc2O)nn1)C1CC(C)(C)NC(C)(C)C1 [Cpd 343, 5-(1-methyl-1H-pyrazol-3-yl)-2-{6-[methyl(2,2,6,6-tetramethylpiperidin-4-yl)amino]-1,2,4-triazin-3-yl}phenol]	≤ 100 nM
CN(c1ncc(-c2ccc(-c3cc(C#N)c4nccn4n3)cc2O)nn1)C1CC(C)(C)NC(C)(C)C1 [Cpd 344, 6-(3-hydroxy-4-{3-[methyl(2,2,6,6-tetramethylpiperidin-4-yl)amino]-1,2,4-triazin-6-yl}phenyl)imidazo[1,2-b]pyridazine-8-carbonitrile]	≤ 100 nM
CC(C)N[C@@H]1CCN(c2ncc(-c3ccc(-c4cn[nH]c4)cc3O)nn2)C1 [Cpd 348, 2-(3-{(3R)-3-[(propan-2-yl)amino]pyrrolidin-l-yl}-1,2,4-triazin-6-yl)-5-(1H-pyrazol-4-yl)phenol]	≤ 100 nM
CN(c1ncc(-c2ccc(-c3cc(CN)c4nccn4n3)cc2O)nn1)C1CC(C)(C)NC(C)(C)C1 [Cpd 351, 5-[8-(aminomethyl)imidazo[1,2-b]pyridazin-6-yl]-2-{3-[methyl(2,2,6,6-tetramethylpiperidin-4-yl)amino]-1,2,4-triazin-6-yl}phenol]	≤ 100 nM
